Patent US10597388B2, “Pyridazinone herbicides” (FMC CORPORATION, priority 2014, dated 2020)

Columns and labels:
Type in all cases: in vivo
[1] = tested on: wild poinsettia (Euphorbia heterophylla); test: Test E greenhouse herbicide test, pre- and postemergence
Procedure, shortened: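 Scores (0–100, visual, vs controls) reflect greenhouse growth of 14 to 21 d after treatment. Application was pre-emergence to silt loam or post-emergence at the 1- to 4-leaf stage.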

[2] = tested on: deadnettle (henbit deadnettle, Lamium amplexicaule); test: Test D controlled growth environment herbicide test, pre- and postemergence
Procedure, shortened: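 Rating is visual, 0–100 scale (100 = complete control), made against untreated plants 14–21 d after treatment in controlled growth conditions. Postemergence sprays went onto 1- to 4-leaf plants in peat medium; preemergence sprays onto silt loam after sowing; formulation included a surfactant.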

[3] = tested on: waterhemp_RES1 (ALS & Triazine resistant common waterhemp, Amaranthus rudis); test: Test E greenhouse herbicide test, postemergence
Protocol: (§1) At the same time, plants from these crop and weed species and also waterhemp_RES1, (ALS & Triazine resistant common waterhemp, Amaranthus rudis), and waterhemp_RES2, (ALS & HPPD resistant common waterhemp, Amaranthus rudis) were planted in pots containing Redi-Earth® planting medium (Scotts Company, 14111 Scottslawn Road, Marysville, Ohio 43041) comprising spaghnum peat moss, vermiculite, wetting agent and starter nutrients were treated with postemergence applications of test chemicals formulated in the same manner. Plants ranged in height from 2 to 18 cm for postemergence treatments (1- to 4-leaf stage). Treated plants and controls were maintained in a greenhouse for 14 to 21 d, after which time all species were compared to controls and visually evaluated. Plant response ratings, summarized in Table E, are based on a scale of 0 to 100 where 0 is no effect and 100 is complete control. A dash (-) response means no test result.

[4] = tested on: waterhemp_RES2 (ALS & HPPD resistant common waterhemp, Amaranthus rudis); test: Test E greenhouse herbicide test, postemergence
Protocol: as §1

[5] = 62 g ai/ha, Postemergence, scale 0 to 100 (0 no effect, 100 complete control)
[6] = 62 g ai/ha, Preemergence, scale 0 to 100 (0 no effect, 100 complete control)
[7] = 125 g ai/ha, Postemergence, scale 0 to 100 (0 no effect, 100 complete control)
[8] = 125 g ai/ha, Preemergence, scale 0 to 100 (0 no effect, 100 complete control)
[9] = 250 g ai/ha, Postemergence, scale 0 to 100 (0 no effect, 100 complete control)
[10] = Postemergence, 31 g ai/ha, visual, scale 0 no effect to 100 complete control
[11] = Preemergence, 31 g ai/ha, scale 0 to 100, 0 no effect, 100 complete control
[12] = Preemergence, 250 g ai/ha, visual, scale 0 no effect to 100 complete control
[13] = Postemergence, 31 g ai/ha, scale 0 to 100 (0 no effect, 100 complete control)
[14] = Postemergence, 125 g ai/ha, visual rating on scale 0 (no effect) to 100 (complete control), 14 to 21 d
[15] = Postemergence, 250 g ai/ha, scale 0 to 100 (0 no effect, 100 complete control)
[16] = Preemergence, 62 g ai/ha, scale 0 to 100 (0 no effect, 100 complete control)
[17] = Preemergence, 125 g ai/ha, scale 0 to 100 (0 no effect, 100 complete control)
[18] = Preemergence, 250 g ai/ha, scale 0 to 100 (0 no effect, 100 complete control)
[19] = postemergence, 62 g ai/ha, scale 0 to 100, 0 no effect, 100 complete control
[20] = 16 g ai/ha, visual, scale 0 no effect to 100 complete control
[21] = 31 g ai/ha, visual, scale 0 no effect to 100 complete control
[22] = 62 g ai/ha, scale 0 to 100 (0 no effect, 100 complete control)
[23] = 125 g ai/ha, scale 0 to 100 (0 no effect, 100 complete control)
[24] = 250 g ai/ha, scale 0 to 100 (0 no effect, 100 complete control)

Compound | Plant response rating, Poinsettia, Wild [1, 5] | Plant response rating, Poinsettia, Wild [1, 6] | Plant response rating, Poinsettia, Wild [1, 7] | Plant response rating, Poinsettia, Wild [1, 8] | Plant response rating, Poinsettia, Wild [1, 9] | Plant response rating, Poinsettia, Wild [1, 10] | Deadnettle plant response rating [2, 13] | Plant response rating, Deadnettle [2, 14] | Plant response rating, Deadnettle [2, 15] | Plant response rating (scale of 0 to 100), Deadnettle ([2]; Preemergence, 31 g ai/ha) | Plant response rating, Deadnettle [2, 16] | Plant response rating, Deadnettle [2, 17] | Plant response rating, Deadnettle [2, 18] | Plant response rating, Deadnettle [2, 19] | Plant response rating, Waterhemp_RES1 [3, 21] | Plant response rating, Waterhemp_RES1 [3, 23] | Plant response rating, Waterhemp_RES1 [3, 24] | Plant response rating, Waterhemp_RES2 [4, 21] | Plant response rating, Waterhemp_RES2 [4, 23] | Plant response rating, Waterhemp_RES2 [4, 24] | further results
Cc1ccc2sc(C)c(-c3c(O)c(C)nn(C)c3=O)c2c1 [Compound 1, 4-(2,5-dimethylbenzo[b]thien-3-yl)-5-hydroxy-2,6-dimethyl-3(2H)-pyridazinone] | 15 | 30 | 15 | 30 | 35 | 10 | 35 | 35 | 70 | 0 | 0 | 0 | 60 | 35 | 80 | 98 | 100 | 75 | 70 | 75 | Plant response rating, Poinsettia, Wild ([1]; Postemergence, 16 g ai/ha, visual, scale 0 no effect to 100 complete control): 5; Plant response rating, Poinsettia, Wild ([1]; Preemergence, 16 g ai/ha, scale 0 to 100, 0 no effect, 100 complete control): 20; Plant response rating, Poinsettia, Wild [1, 11]: 30; Plant response rating, Poinsettia, Wild [1, 12]: 35; Plant response rating, Waterhemp_RES1 [3, 20]: 75; Plant response rating, Waterhemp_RES1 [3, 22]: 90; Plant response rating, Waterhemp_RES2 [4, 20]: 0; Plant response rating, Waterhemp_RES2 [4, 22]: 70
CC(=O)Oc1c(C)nn(C)c(=O)c1-c1c(C)sc2ccc(C)cc12 [Compound 25] | 30 |  | 35 |  | 60 | 35 | 5 | 20 | 45 | 0 | 0 | 0 | 50 | 10 | 75 | 85 | 95 | 70 | 70 | 75 | Plant response rating, Waterhemp_RES1 [3, 22]: 80; Plant response rating, Waterhemp_RES2 [4, 22]: 60
CCC(=O)Oc1c(C)nn(C)c(=O)c1-c1c(C)sc2c(C)cc(C)cc12 [Compound 28] |  |  | 50 |  | 40 |  | 10 | 35 | 70 | 0 | 0 | 5 | 5 | 35 |  | 60 | 80 |  | 50 | 50 | 
CCC(=O)Oc1c(C)nn(C)c(=O)c1-c1c(C)sc2ccc(C)cc12 [Compound 42] |  |  |  |  |  |  | 5 | 35 | 55 | 0 | 0 | 25 | 15 | 25 | 75 | 70 | 98 | 60 | 70 | 80 | Plant response rating, Waterhemp_RES1 [3, 22]: 75; Plant response rating, Waterhemp_RES2 [4, 22]: 65
COC(=O)Oc1c(C)nn(C)c(=O)c1-c1c(C)sc2c(C)cc(C)cc12 [Compound 81] | 40 | 5 | 40 | 30 | 50 | 30 | 15 | 35 | 60 | 0 | 0 | 5 | 55 | 35 | 50 | 60 | 65 | 10 | 50 | 50 | Plant response rating, Poinsettia, Wild [1, 11]: 0; Plant response rating, Poinsettia, Wild [1, 12]: 60
CCOC(=O)Oc1c(C)nn(C)c(=O)c1-c1c(C)sc2c(C)cc(C)cc12 [Compound 83] |  |  |  |  |  |  | 15 | 55 | 60 | 0 |  | 15 | 100 | 25 | 70 | 80 | 70 | 30 | 40 | 50 | Plant response rating (scale of 0 to 100), Deadnettle ([2]; Preemergence, 62 g ai/ha): 0
Cc1cc(C)c2sc(C)c(-c3c(OC(=O)OCCCl)c(C)nn(C)c3=O)c2c1 [Compound 85] |  |  |  |  |  |  | 10 | 40 | 45 | 0 |  | 10 | 35 | 15 | 80 | 75 | 80 | 40 | 40 | 50 | Plant response rating (scale of 0 to 100), Deadnettle ([2]; Preemergence, 62 g ai/ha): 0
C#CCOC(=O)Oc1c(C)nn(C)c(=O)c1-c1c(C)sc2ccc(C)cc12 [Compound 87] |  | 15 |  | 15 |  |  | 10 | 35 | 60 | 25 |  | 65 | 70 | 15 |  |  |  |  |  |  | Plant response rating, Poinsettia, Wild [1, 11]: 0; Plant response rating, Poinsettia, Wild [1, 12]: 20; Plant response rating (scale of 0 to 100), Deadnettle ([2]; Preemergence, 62 g ai/ha): 35
COc1nn(C)c(=O)c(-c2c(C)sc3ccc(Cl)cc23)c1O [Compound 100] | 0 |  | 10 |  | 35 | 0 |  |  |  |  |  |  |  |  | 80 | 85 | 90 | 50 | 65 | 70 | 
CSCC(=O)Oc1c(C)nn(C)c(=O)c1-c1cccc2ccccc12 [Compound 171] | 30 |  | 40 |  | 80 | 25 |  |  |  |  |  |  |  |  | 50 | 75 | 90 | 15 | 40 | 60 | 
